Converted amounts (≈) assume the structure as drawn.
Key:
Enterobacter cloacae [1] = test: MIC assay of individual compounds (microdilution, CLSI/NCCLS); format: cell-based; settings: individual compound
Procedure: (§1) Mueller-Hinton broth (MH broth) medium, Trypticase Soy Broth (TSB Broth) medium, purchased from BD Difco, Cockeysville, MD, USA; • 96-well plate: Corning Costar, Cambridge, MA, USA; • Test method: the antibacterial activities were tested by the microdilution method according to the CLSI/NCCLS standard.
(§2) (1) Preparation of the test samples: 4 mg of each sample was taken, and was prepared into a test solution at 1,024 μg/mL with MH broth, and the test solution was diluted two-fold in a 96-well plate to prepare solutions of a series of gradient concentrations, the volume in each well being 90 μL.
(§3) (2) Preparation of a bacteria solution: The test strains were amplified by Trypticase Soy Broth (TSB Broth) according to the CLSI/NCCLS standard.
(§4) (3) Addition of the samples: a bacteria solution with a concentration of 6×10^5 cfu/mL was prepared, and 10 μL of the bacteria solution was pipetted into each well of the 96-well plate. Three parallel experiments were set up for each concentration and the results were averaged. To the negative control group, 10 μL of the bacterial solution and 90 μL MH broth were added.
(§5) (4) Incubation: the 96-well plate was placed in a 37° C. constant-temperature incubator for 18 hours, and the growth of the strains was observed. The drug concentration in the well with no microbial growth was recorded as the MIC.

Escherichia coli [2] = test: as above; format: cell-based; settings: individual compound
Procedure: as §1, §2, §3, §4, §5

Klebsiella pneumoniae [3] = test: as above; format: cell-based; settings: individual compound
Procedure: as §1, §2, §3, §4, §5

Enterobacter cloacae [4] = test: Combined in vitro use, checkerboard dilution method; format: cell-based; settings: compound of formula (I-1) combined with avibactam; Enterobacter cloacae ATCC 2468
Procedure: (§6) Mueller-Hinton broth (MH broth) medium, Trypticase Soy Broth (TSB Broth) medium, purchased from BD Difco, Cockeysville, MD, USA; • 96-well plate: Corning Costar, Cambridge, MA, USA; • Test method: the checkerboard dilution method was used for determination.
(§7) (1) Preparation of the test samples: 4 mg of each sample was taken and was prepared into a test solution at 2,048 μg/mL with MH broth, and the test solution was diluted two-fold in a 96-well plate to prepare solutions of a series of gradient concentrations.
as §3
(§8) (3) Addition of the samples: 10 μL of the bacteria solution with a concentration of 6×10^5 CFU/mL was pipetted into each well of the 96-well plate. Each well contained the antibacterial drugs (the compound of formula (I-1) and the compound of formula (I-2)) diluted two-fold with broth and the aforementioned lactamase inhibitor or efflux pump inhibitor. […] The samples were mixed thoroughly. Three parallel experiments were set up for each concentration and the results were averaged. To the negative control group, 10 μL of the bacterial solution and 90 μL MH broth were added.
(§9) (4) Incubation: the 96-well plate was placed in a 37° C. constant-temperature incubator for 18 hours, and the growth of the strains was observed.
(§10) (5) Calculation: The in vitro effect of each drug-inhibitor combination was analyzed by calculating the FICI value: FICI=(MIC of drug A in the combination/MIC of drug A alone)+ (MIC of drug B in the combination/MIC of drug B alone).
(§11) In order to ensure the reliability of the data, three repeated tests were conducted on different dates and the results were averaged.

Escherichia coli [5] = test: as above; format: cell-based; settings: compound of formula (I-1) combined with avibactam
Procedure: as §6, §7, §3, §8, §9, §10, §11

Klebsiella pneumoniae [6] = test: as above; format: cell-based
Procedure: as §6, §7, §3, §8, §9, §10, §11

[7] = system: drug-resistant Enterobacteriaceae; test: MIC assay of individual compounds, summary over Enterobacteriaceae strains; format: cell-based; settings: against the aforementioned Enterobacteriaceae
Procedure: as §1, §2, §3, §4, §5

[8] = system: Klebsiella pneumoniae ATCC BAA2146 (NDM-1); settings: avibactam itself; stated as well known to those skilled in the art; cited from earlier work
[9] = Escherichia coli CCPM(A)-P-071301

NC(=O)[C@@H]1CC[C@@H]2CN1C(=O)N2OS(=O)(=O)O [Avibactam, avibactam]
MIC (Enterobacter cloacae [1]; Enterobacter cloacae ATCC 2468): 32 µg/mL (≈ 121 µM)
MIC (Enterobacter cloacae [1]; Enterobacter cloacae CCPM(A)-P-111719): 32 µg/mL (≈ 121 µM)
MIC (Escherichia coli [2]; Escherichia coli ATCC 2469): 16 µg/mL (≈ 60.3 µM)
MIC (Escherichia coli [2]; [9]): 16 µg/mL (≈ 60.3 µM)
MIC (Klebsiella pneumoniae [3]; Klebsiella pneumoniae ATCC 2146): 8 µg/mL (≈ 30.2 µM)
MIC (Klebsiella pneumoniae [3]; Klebsiella pneumoniae ATCC 700603): 16 µg/mL (≈ 60.3 µM)
MIC (Klebsiella pneumoniae [3]; Klebsiella pneumoniae CCPM(A)-0814R18): 16 µg/mL (≈ 60.3 µM)
MIC (Klebsiella pneumoniae [3]; Klebsiella pneumoniae CCPM(A)-0814R33): 16 µg/mL (≈ 60.3 µM)
MIC (Klebsiella pneumoniae [3]; Klebsiella pneumoniae CCPM(A)-0817R61): 32 µg/mL (≈ 121 µM)
MIC (Klebsiella pneumoniae [3]; Klebsiella pneumoniae CCPM(A)-081301): 32 µg/mL (≈ 121 µM)
MIC (Klebsiella pneumoniae [3]; Klebsiella pneumoniae CCPM(A)-081705): 16 µg/mL (≈ 60.3 µM)
MIC (Klebsiella pneumoniae [3]; Klebsiella pneumoniae CCPM(A)-081715): 32 µg/mL (≈ 121 µM)
MIC (Klebsiella pneumoniae [3]; Klebsiella pneumoniae CCPM(A)-081716): 16 µg/mL (≈ 60.3 µM)
MIC (Klebsiella pneumoniae [3]; Klebsiella pneumoniae CCPM(A)-081729): 32 µg/mL (≈ 121 µM)
MIC in combination (Enterobacter cloacae [4]): 4 µg/mL
MIC in combination (Escherichia coli [5]; Escherichia coli ATCC 2469): 1 µg/mL
MIC in combination (Escherichia coli [5]; [9]): 1 µg/mL
MIC in combination (Klebsiella pneumoniae [6]; compound of formula (I-1) combined with avibactam, Klebsiella pneumoniae ATCC 2146): 2 µg/mL
MIC in combination (Klebsiella pneumoniae [6]; compound of formula (I-1) combined with avibactam, Klebsiella pneumoniae ATCC 700603): 0.5 µg/mL
MIC in combination (Klebsiella pneumoniae [6]; compound of formula (I-1) combined with avibactam, Klebsiella pneumoniae CCPM(A)-0814R18): 0.5 µg/mL
MIC in combination (Klebsiella pneumoniae [6]; compound of formula (I-1) combined with avibactam, Klebsiella pneumoniae CCPM(A)-0814R33): 2 µg/mL
MIC in combination (Klebsiella pneumoniae [6]; compound of formula (I-1) combined with avibactam, Klebsiella pneumoniae CCPM(A)-0817R61): 0.5 µg/mL
MIC in combination (Klebsiella pneumoniae [6]; compound of formula (I-1) combined with avibactam, Klebsiella pneumoniae CCPM(A)-081705): 8 µg/mL
MIC in combination (Klebsiella pneumoniae [6]; compound of formula (I-1) combined with avibactam, Klebsiella pneumoniae CCPM(A)-081715): 0.5 µg/mL
MIC in combination (Klebsiella pneumoniae [6]; compound of formula (I-1) combined with avibactam, Klebsiella pneumoniae CCPM(A)-081716): 8 µg/mL
MIC in combination (Klebsiella pneumoniae [6]; compound of formula (I-1) combined with avibactam, Klebsiella pneumoniae CCPM(A)-081729): 8 µg/mL
MIC in combination (Klebsiella pneumoniae [6]; compound of formula (I-2) combined with avibactam, Klebsiella pneumoniae ATCC 2146): 0.5 µg/mL
MIC in combination (Klebsiella pneumoniae [6]; compound of formula (I-2) combined with avibactam, Klebsiella pneumoniae ATCC 700603): 0.5 µg/mL
MIC in combination (Klebsiella pneumoniae [6]; compound of formula (I-2) combined with avibactam, Klebsiella pneumoniae CCPM(A)-081715): 4 µg/mL
MIC in combination (Klebsiella pneumoniae [6]; compound of formula (I-2) combined with avibactam, Klebsiella pneumoniae CCPM(A)-081729): 4 µg/mL
activity of the inhibitor itself [7]: relatively weak activities
in vivo antibacterial effect on the test strain [8]: no in vivo antibacterial effect

From patent US20240390335A1, “PHARMACEUTICAL COMPOSITION CONTAINING BETA-LACTAM COMPOUND AND USE THEREOF” (priority 2021, published 2024)
